Measured values taken from US8063018B2, “Bivalent thrombin binding molecules comprising linkers” (National Research Council of Canada, priority 2004, dated 2011).

Assays:
[1] = target: T1, thrombin (Homo sapiens, UniProt P00734); assay: Fibrinogen clotting assay catalyzed by thrombin; format: biochemical; details: concentration needed to double the clotting time
Experimental: Curves represent OD420 time course after the addition of 0.6 nM thrombin in the presence of (♦) 0 nM; (◯) 0.5 nM; (□) 1 nM; (Δ) 1.5 nM; (⋄) 2.5 nM; (●) 3.75 nM; (▪) 6.25 nM; and (▴) […] of the inhibitor with linker (GS)n and n=2 (SEQ. ID. NO. 50) (a); n=4 (SEQ. ID. NO. 51) (b); n=6 (SEQ. ID. NO. 52) (c); n=8 (SEQ. ID. NO. 53) (d); n=10 (SEQ. ID. NO. 54) (e); and in the presence of (♦) 0 nM; (◯) 1 nM; (□) 2 nM; (Δ) 4 nM; (⋄) 6 nM; (●) 10 nM; (▪) 15 nM; and (▴) 25 nM of the inhibitor with linker (GS)n and n=12 (SEQ. ID. NO. 55) (f); n=14 (SEQ. ID. NO. 56) (g), at 37° C. The onset clotting time was determined as an intersection of the baseline and the extrapolated linear portion of the OD change curve. […] Curves (i) represent OD420 time course in the presence of (A) 0 nM; (◯) 1 nM; (□) 2 nM; (Δ) 4 nM; (⋄) 6 nM; and (●) 15 nM of the inhibitor with linker […] (SEQ. ID. NO. 103), at 37° C. […] represent OD420 time course in the presence of (◯) 0 nM; (□) 2 nM; (Δ) 4 nM; (⋄) 6 nM; (●) 8 nM; (▪) 10 nM; (▴) 12 nM; and (♦) 15 nM; of the inhibitor with linker […] (SEQ. ID. NO. 58) at 25° C. Curves (k) represent OD420 time course in the presence of (◯) 0 nM; (□) 0.5 nM; (Δ) 1 nM; (⋄) 2 nM; (●) 3 nM; (▪) 4 nM; (▴) 5 nM; and (♦) 6 nM; of the inhibitor with linker […] (SEQ. ID. NO. 105) at 37° C. Curves (I) represent OD420 time course in the presence of (◯) 0 nM; (□) 0.25 nM; (Δ) 0.5 nM; (⋄) 1 nM; (●) 1.5 nM; (▪) 2 nM; and (▴) 2.5 nM; of the inhibitor with linker […] (SEQ. ID. NO. 104) at 37° C. Curves (m) represent OD420 time course in the presence of (◯) 0 nM; (□) 2 nM; (Δ) 4 nM; (⋄) 6 nM; (●) 8 nM; (▴) 10 nM; and (A) 12 nM; of the inhibitor with linker […] (SEQ. ID. NO. 106) at 37° C. Curves (n) represent OD420 time course in the presence of (◯) 0 nM; (□) 1 nM; (Δ) 2 nM; (⋄) 3 nM; (●) 4 nM; (▪) 5 nM; (▴) 6 nM; and (♦) 7 nM; of the inhibitor with linker […] (SEQ. ID. NO. 107) at 37° C. Curves (o) represent OD420 time course in the presence of (◯) 0 nM; (□) 4 nM; and (Δ) 8 nM; of the inhibitor with linker GQSHNR (SEQ. ID. NO. 108) at 37° C.
Other experimental conditions were as used for the assays described in FIG. 2.
(§1) Clotting assays were carried out by use of the protocols described previously (DiMaio and others, 1990, 21698-21703; Witting and others, 1992, 737-743). The assay employs bovine plasma fibrinogen dissolved at 0.1% in 50 mM Tris-Cl, 100 mM NaCl, 0.1% PEG-8000 at pH 7.6 (i.e. the clotting buffer). Each assay mixture contained a certain concentration of the peptide, and the reaction was started by the addition of human thrombin to a final concentration of 0.6-1.2 nM. Optical absorbance increase at 420 nm caused by fibrin clot formation was measured at 25° C. or 37° C. using the Spectramax plate reader. The onset clotting time was determined as an intersection of the baseline and the extrapolated linear portion of the OD change curve. The concentration of a peptide needed to double the clotting time was defined as IC50 (DiMaio and others, 1990, 21698-21703). Kinetic amidolytic curves were obtained in clotting buffer at 25° C. using eight inhibitor concentrations and three to five concentrations of the chromogenic substrate S-2238 (Chromogenix) (DiMaio and others, 1990, 21698-21703). Inhibition constants were extracted from Lineweaver-Burk equation by using weighted linear regression. Errors in Ki determination were estimated by using Monte-Carlo sampling with 1-3% variance of the experimental points.

[2] = target: T1, thrombin; assay: Kinetic amidolytic assay with chromogenic substrate S-2238 (inhibition constants); format: biochemical; details: 25° C., S-2238, clotting buffer; read-out: KI, nM (25° C.)
Experimental: as §1, with “Peptides were freeze-dried and their identity was confirmed by ion-spray mass spectrometry. Clotting” for “Clotting”, “points. Peptide concentrations were determined spectrophotometrically using predicted extinction coefficients at 278 nm (Gill and von Hippel, 1989, 319-326).” for “points.”

Q: What does the source list for `CC[C@H](C)[C@H](NC(=O)[C@H](CCC(=O)O)NC(=O)[C@H](CCC(=O)O)NC(=O)[C@H](Cc1ccccc1)NC(=O)[C@H](CC(=O)O)NC(=O)CNC(=O)[C@H](CO)NC(=O)CNC(=O)[C@H](CO)NC(=O)CNC(=O)[C@H](CO)NC(=O)CNC(=O)[C@H](CO)NC(=O)CNC(=O)[C@H](CO)NC(=O)CNC(=O)[C@H](CO)NC(=O)CNC(=O)[C@H]1CCCCN1C(=O)[C@H](CCCNC(=N)N)NS(=O)(=O)c1ccc(C(C)(C)C)cc1)C(=O)N1CCC[C@H]1C(=O)N[C@@H](CCC(=O)O)C(=O)N[C@@H](CCC(=O)O)C(=O)N[C@@H](Cc1ccc(O)cc1)C(=O)N[C@@H](CC(C)C)C(=O)N[C@@H](CCC(N)=O)C(=O)O` [P3151]?
A: IC50 ([1]; IC50, nM (37° C.), 37° C.): 0.5 ± 0.1 nM; Ki [2]: 0.6 ± 0.1 nM

Q: With `CC[C@H](C)[C@H](NC(=O)[C@H](CCC(=O)O)NC(=O)[C@H](CCC(=O)O)NC(=O)[C@H](Cc1ccccc1)NC(=O)[C@H](CC(=O)O)NC(=O)CNC(=O)[C@H](CO)NC(=O)CNC(=O)[C@H](CO)NC(=O)CNC(=O)[C@H](CO)NC(=O)CNC(=O)[C@H](CO)NC(=O)CNC(=O)[C@H](CO)NC(=O)CNC(=O)[C@H](CO)NC(=O)CNC(=O)[C@H](CO)NC(=O)CNC(=O)[C@H](CO)NC(=O)CNC(=O)[C@H](CO)NC(=O)CNC(=O)[C@H](CO)NC(=O)CNC(=O)[C@H]1CCCCN1C(=O)[C@H](CCCNC(=N)N)NS(=O)(=O)c1ccc(C(C)(C)C)cc1)C(=O)N1CCC[C@H]1C(=O)N[C@@H](CCC(=O)O)C(=O)N[C@@H](CCC(=O)O)C(=O)N[C@@H](Cc1ccc(O)cc1)C(=O)N[C@@H](CC(C)C)C(=O)N[C@@H](CCC(N)=O)C(=O)O` [P3153] as the compound, how does the IC50 ([1]; IC50, nM (37° C.), 37° C.) read?
A: 1 ± 0.1 nM

Q: What about the Ki [2] of the same compound?
A: 2 ± 0.3 nM

Q: Which results are given for `CC[C@H](C)[C@H](NC(=O)[C@H](CCC(=O)O)NC(=O)[C@H](CCC(=O)O)NC(=O)[C@H](Cc1ccccc1)NC(=O)[C@H](CC(=O)O)NC(=O)CNC(=O)[C@H](CO)NC(=O)CNC(=O)[C@H](CO)NC(=O)CNC(=O)[C@H](CO)NC(=O)CNC(=O)[C@H](CO)NC(=O)CNC(=O)[C@H](CO)NC(=O)CNC(=O)[C@H](CO)NC(=O)CNC(=O)[C@H](CO)NC(=O)CNC(=O)[C@H](CO)NC(=O)CNC(=O)[C@H](CO)NC(=O)CNC(=O)[C@H](CO)NC(=O)CNC(=O)[C@H](CO)NC(=O)CNC(=O)[C@H](CO)NC(=O)CNC(=O)[C@H](CO)NC(=O)CNC(=O)[C@H](CO)NC(=O)CNC(=O)[C@H]1CCCCN1C(=O)[C@H](CCCNC(=N)N)NS(=O)(=O)c1ccc(C(C)(C)C)cc1)C(=O)N1CCC[C@H]1C(=O)N[C@@H](CCC(=O)O)C(=O)N[C@@H](CCC(=O)O)C(=O)N[C@@H](Cc1ccc(O)cc1)C(=O)N[C@@H](CC(C)C)C(=O)N[C@@H](CCC(N)=O)C(=O)O` [P3159]?
A: IC50 ([1]; IC50, nM (37° C.), 37° C.): 3.5 ± 0.2 nM; Ki [2]: 6.7 ± 1.9 nM

Q: Which IC50 ([1]; IC50, nM (37° C.), 37° C.) does the source give for `CC[C@H](C)[C@H](NC(=O)[C@H](CCC(=O)O)NC(=O)[C@H](CCC(=O)O)NC(=O)[C@H](Cc1ccccc1)NC(=O)[C@H](CC(=O)O)NC(=O)CNC(=O)[C@H](CO)NC(=O)CNC(=O)[C@H](CO)NC(=O)CNC(=O)[C@H](CO)NC(=O)CNC(=O)[C@H](CO)NC(=O)CNC(=O)[C@H](CO)NC(=O)CNC(=O)[C@H](CO)NC(=O)CNC(=O)[C@H](CO)NC(=O)CNC(=O)[C@H](CO)NC(=O)CNC(=O)[C@H](CO)NC(=O)CNC(=O)[C@H](CO)NC(=O)CNC(=O)[C@H](CO)NC(=O)CNC(=O)[C@H](CO)NC(=O)CNC(=O)[C@H]1CCCCN1C(=O)[C@H](CCCNC(=N)N)NS(=O)(=O)c1ccc(C(C)(C)C)cc1)C(=O)N1CCC[C@H]1C(=O)N[C@@H](CCC(=O)O)C(=O)N[C@@H](CCC(=O)O)C(=O)N[C@@H](Cc1ccc(O)cc1)C(=O)N[C@@H](CC(C)C)C(=O)N[C@@H](CCC(N)=O)C(=O)O` [P3160] here?
A: 2.8 ± 0.1 nM

Q: What about the Ki [2] of the same compound?
A: 4.6 ± 0.8 nM

Q: With `CC[C@H](C)[C@H](NC(=O)[C@H](CCC(=O)O)NC(=O)[C@H](CCC(=O)O)NC(=O)[C@H](Cc1ccccc1)NC(=O)[C@H](CC(=O)O)NC(=O)CNC(=O)[C@H](CO)NC(=O)[C@@H](NC(=O)[C@H](CCCCN)NC(=O)[C@H](CCC(=O)O)NC(=O)[C@H](Cc1ccc(O)cc1)NC(=O)[C@H](Cc1c[nH]cn1)NC(=O)[C@@H]1CCCN1C(=O)[C@H](CO)NC(=O)CNC(=O)[C@H]1CCCCN1C(=O)[C@H](CCCNC(=N)N)NS(=O)(=O)c1ccc(C(C)(C)C)cc1)C(C)C)C(=O)N1CCC[C@H]1C(=O)N[C@@H](CCC(=O)O)C(=O)N[C@@H](CCC(=O)O)C(=O)N[C@@H](Cc1ccc(O)cc1)C(=O)N[C@@H](CC(C)C)C(=O)N[C@@H](CCC(N)=O)C(=O)O` [P3169] as the compound, how does the IC50 ([1]; IC50, nM (25° C.), 25° C.) read?
A: 0.4 nM

Q: What about the Ki [2] of the same compound?
A: 1 ± 0.2 nM

Q: For `CC[C@H](C)[C@H](NC(=O)[C@H](CCC(=O)O)NC(=O)[C@H](CCC(=O)O)NC(=O)[C@H](Cc1ccccc1)NC(=O)[C@H](CC(=O)O)NC(=O)CNC(=O)[C@H](CO)NC(=O)[C@@H](NC(=O)[C@H](CCCCN)NC(=O)[C@H](CCC(=O)O)NC(=O)[C@H](Cc1ccc(OP(=O)(O)O)cc1)NC(=O)[C@H](Cc1c[nH]cn1)NC(=O)[C@@H]1CCCN1C(=O)[C@H](CO)NC(=O)CNC(=O)[C@H]1CCCCN1C(=O)[C@H](CCCNC(=N)N)NS(=O)(=O)c1ccc(C(C)(C)C)cc1)C(C)C)C(=O)N1CCC[C@H]1C(=O)N[C@@H](CCC(=O)O)C(=O)N[C@@H](CCC(=O)O)C(=O)N[C@@H](Cc1ccc(O)cc1)C(=O)N[C@@H](CC(C)C)C(=O)N[C@@H](CCC(N)=O)C(=O)O` [P3170], which IC50 ([1]; IC50, nM (25° C.), 25° C.) is on record?
A: 0.7 nM

Q: And the Ki [2]?
A: 1.5 ± 0.4 nM
